Measurements taken from US6083944A, “Quinoline-containing α-ketoamide cysteine and serine protease inhibitors” (Cephalon, Inc., priority 1998, dated 2000).
One block for each compound: values may come before it.

Molecular target: T1, Recombinant human calpain I (Homo sapiens, UniProt P07384)
T1 construct: made in house
T1 sequence (P07384 1-714): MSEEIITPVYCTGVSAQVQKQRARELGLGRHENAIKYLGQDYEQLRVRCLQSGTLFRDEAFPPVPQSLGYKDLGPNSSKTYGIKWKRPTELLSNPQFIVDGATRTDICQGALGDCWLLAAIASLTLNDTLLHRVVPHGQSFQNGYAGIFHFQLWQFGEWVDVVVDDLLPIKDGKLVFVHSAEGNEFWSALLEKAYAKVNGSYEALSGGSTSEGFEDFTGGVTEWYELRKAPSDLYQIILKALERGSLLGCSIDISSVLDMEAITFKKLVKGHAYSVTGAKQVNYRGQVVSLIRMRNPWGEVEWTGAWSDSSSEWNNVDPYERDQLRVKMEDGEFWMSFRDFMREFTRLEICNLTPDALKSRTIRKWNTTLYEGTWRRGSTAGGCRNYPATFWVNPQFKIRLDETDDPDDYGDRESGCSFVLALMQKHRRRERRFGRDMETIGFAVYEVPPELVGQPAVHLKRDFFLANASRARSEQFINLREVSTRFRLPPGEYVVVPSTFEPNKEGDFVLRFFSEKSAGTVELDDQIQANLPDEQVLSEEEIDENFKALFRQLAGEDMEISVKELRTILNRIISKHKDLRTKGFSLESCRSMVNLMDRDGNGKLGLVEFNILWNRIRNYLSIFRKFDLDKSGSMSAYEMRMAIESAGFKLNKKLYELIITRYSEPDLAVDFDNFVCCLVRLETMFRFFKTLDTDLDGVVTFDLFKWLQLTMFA
Assay: Inhibition of calpain I (Succ-Leu-Tyr-MNA hydrolysis)
Format: biochemical
Conditions: for inhibition at 10 µM: values in parentheses, at 10,000 nM
Method: To evaluate inhibitory activity, stock solutions (40 times concentrated) of each compound to be tested were prepared in 100% anhydrous DMSO and 5 μl of each inhibitor preparation was aliquoted into each of three wells of a 96-well plate. Recombinant human calpain I, prepared by the method of Meyer et al. (Biochem. J. 1996, 314: 511-519), was diluted into assay buffer (i.e., 50 mM Tris, 50 mM NaCl, 1 mM EDTA, 1 mM EGTA, and 5 mM β-mercaptoethanol, pH 7.5, including 0.2 mM Succ-Leu-Tyr-MNA), and 175 μl was aliquoted into the same wells containing the independent inhibitor stocks as well as to positive control wells containing 5 μl DMSO, but no compound. To start the reaction, 20 μl of 50 mM CaCl2 in assay buffer was added to all wells of the plate, excepting three, which were used as background signal baseline controls. Substrate hydrolysis was monitored every 5 minutes for a total of 30 minutes. Substrate hydrolysis in the absence of inhibitor was linear for up to 15 minutes.
Inhibition of calpain I activity was calculated as the percent decrease in the rate of substrate hydrolysis in the presence of inhibitor relative to the rate in its absence. Comparison between the inhibited and control rates was made within the linear range for substrate hydrolysis. The IC50 S of inhibitors (concentration yielding 50% inhibition) were determined from the percent decrease in rates of substrate hydrolysis in the presence of five to seven different concentrations of the test compound. The results were plotted as percent inhibition versus log inhibitor concentration, and the IC50 was calculated by fitting the data to the four-parameter logistic equation shown below using the program GraphPad Prism (GraphPad Software, Inc., San Diego, Calif.).
The parameters a, b, c, and d are defined as follows: a is % inhibition in the absence of inhibitor, b is the slope, c is the IC50, and d is the % inhibition at an infinite concentration of inhibitor.

SMILES: O=C(NCCCN1CCOCC1)C(=O)C(Cc1ccccc1)NC(=O)c1cc(C#Cc2ccccc2)nc2ccccc12 (centres unmarked) [Example 51]
IC50 (Tables 2-4, pH 7.5): 424 nM

SMILES: O=C(NCCc1ccccc1)C(=O)C(Cc1ccccc1)NC(=O)c1cc(C#Cc2ccccc2)nc2ccccc12 (centres unmarked) [Example 43]
IC50 (Tables 2-4, pH 7.5): 390 nM

SMILES: CCCCCCOCCOCCOCCNC(=O)C(=O)C(Cc1ccccc1)NC(=O)c1cc(C#Cc2ccccc2)nc2ccccc12 (centres unmarked) [Example 9]
IC50 (Tables 2-4, pH 7.5): 230 nM

SMILES: NS(=O)(=O)c1ccc(CNC(=O)C(=O)C(Cc2ccccc2)NC(=O)c2cc(C#Cc3ccccc3)nc3ccccc23)cc1 (centres unmarked) [Example 39]
IC50 (Tables 2-4, pH 7.5): 184 nM

SMILES: CC(C)CC(NC(=O)c1cc(C#Cc2ccccc2)nc2ccccc12)C(=O)C(=O)NCCOCCO (centres unmarked) [Example 114]
inhibition at 10 µM (Tables 2-4): 93%

SMILES: CC(C)(C)OC(=O)NCCCNC(=O)C(=O)C(Cc1ccccc1)NC(=O)c1cc(C#Cc2ccccc2)nc2ccccc12 (centres unmarked) [Example 97]
inhibition at 10 µM (Tables 2-4): 100%

SMILES: CC(C)(C)OC(=O)N=C(NCCCCC(CO)NC(=O)C(=O)C(Cc1ccccc1)NC(=O)c1cc(C#Cc2ccccc2)nc2ccccc12)NC(=O)OC(C)(C)C (centres unmarked) [Example 25]
inhibition at 10 µM (Tables 2-4): 42%

SMILES: O=C(NCc1ccncc1)C(=O)C(Cc1ccccc1)NC(=O)c1cc(C#Cc2ccccc2)nc2ccccc12 (centres unmarked) [Example 47]
inhibition at 10 µM (Tables 2-4): 98%

SMILES: O=C(NCc1ccccc1)C(=O)[C@H](Cc1ccccc1)NC(=O)c1cc(C#Cc2ccccc2)nc2ccccc12 [Example 36]
IC50 (Tables 2-4, pH 7.5): 79 nM

SMILES: O=C(NC1CCCCC1O)C(=O)C(Cc1ccccc1)NC(=O)c1cc(C#Cc2ccccc2)nc2ccccc12 (centres unmarked) [Example 28]
inhibition at 10 µM (Tables 2-4): 61%

SMILES: O=C(NCCOCCO)C(=O)C(Cc1ccccc1)NC(=O)c1cc(C#Cc2ccccc2)nc2ccccc12 (centres unmarked) [Example 10]
IC50 (Tables 2-4, pH 7.5): 630 nM

SMILES: CN(C)S(=O)(=O)NCCNC(=O)C(=O)C(Cc1ccccc1)NC(=O)c1cc(C#Cc2ccccc2)nc2ccccc12 (centres unmarked) [Example 94]
IC50 (Tables 2-4, pH 7.5): 141 nM

SMILES: CC(C)CC(NC(=O)c1cc(C#Cc2ccccc2)nc2ccccc12)C(=O)C(=O)NCCNS(=O)(=O)c1ccccc1 (centres unmarked) [Example 117]
inhibition at 10 µM (Tables 2-4): 82%

SMILES: O=C(NC(CO)Cc1ccccc1)C(=O)C(Cc1ccccc1)NC(=O)c1cc(C#Cc2ccccc2)nc2ccccc12 (centres unmarked) [Example 23]
inhibition at 10 µM (Tables 2-4): 75%

SMILES: O=C(NCC(F)(F)F)C(=O)C(Cc1ccccc1)NC(=O)c1cc(C#Cc2ccccc2)nc2ccccc12 (centres unmarked) [Example 2]
inhibition at 10 µM (Tables 2-4): 98%

SMILES: CCCCNC(=O)C(=O)C(Cc1ccccc1)NC(=O)c1cc(C=Cc2ccccc2)nc2ccccc12 (centres unmarked) [Example 130]
IC50 (Tables 2-4, pH 7.5): 105 nM

SMILES: O=C(NCCC1=CCCCC1)C(=O)C(Cc1ccccc1)NC(=O)c1cc(C#Cc2ccccc2)nc2ccccc12 (centres unmarked) [Example 6]
inhibition at 10 µM (Tables 2-4): 89%

SMILES: O=C(NCc1cccc([N+](=O)[O-])c1)C(=O)C(Cc1ccccc1)NC(=O)c1cc(C#Cc2ccccc2)nc2ccccc12 (centres unmarked) [Example 40]
inhibition at 10 µM (Tables 2-4): 95%

SMILES: COC(=O)C(CCCCNC(=O)C(=O)C(Cc1ccccc1)NC(=O)c1cc(C#Cc2ccccc2)nc2ccccc12)NC(=O)OC(C)(C)C (centres unmarked) [Example 106]
inhibition at 10 µM (Tables 2-4): 97%

SMILES: O=C(NCCCNC(=O)C(=O)C(Cc1ccccc1)NC(=O)c1cc(C#Cc2ccccc2)nc2ccccc12)Nc1ccccc1 (centres unmarked) [Example 98]
IC50 (Tables 2-4, pH 7.5): 126 nM

SMILES: O=C(NCCNC(=O)[C@@H]1CCCN1S(=O)(=O)c1ccccc1)C(=O)C(Cc1ccccc1)NC(=O)c1cc(C#Cc2ccccc2)nc2ccccc12 (some centres unmarked) [Example 108]
inhibition at 10 µM (Tables 2-4): 94%

SMILES: O=C(NCC1CCCO1)C(=O)C(Cc1ccccc1)NC(=O)c1cc(C#Cc2ccccc2)nc2ccccc12 (centres unmarked) [Example 54]
inhibition at 10 µM (Tables 2-4): 84%

SMILES: COc1ccc2[nH]cc(CCNC(=O)C(=O)C(Cc3ccccc3)NC(=O)c3cc(C#Cc4ccccc4)nc4ccccc34)c2c1 (centres unmarked) [Example 49]
IC50 (Tables 2-4, pH 7.5): 160 nM

SMILES: O=C(NCC(c1ccccc1)c1ccccc1)C(=O)C(Cc1ccccc1)NC(=O)c1cc(C#Cc2ccccc2)nc2ccccc12 (centres unmarked) [Example 44]
inhibition at 10 µM (Tables 2-4): 85%

SMILES: COCCNC(=O)C(=O)C(Cc1ccccc1)NC(=O)c1cc(C#Cc2ccccc2)nc2ccccc12 (centres unmarked) [Example 11]
IC50 (Tables 2-4, pH 7.5): 480 nM

SMILES: O=C(NC1Cc2ccccc2C1)C(=O)C(Cc1ccccc1)NC(=O)c1cc(C#Cc2ccccc2)nc2ccccc12 (centres unmarked) [Example 55]
inhibition at 10 µM (Tables 2-4): 60%

SMILES: N#CCCNC(=O)C(=O)C(Cc1ccccc1)NC(=O)c1cc(C#Cc2ccccc2)nc2ccccc12 (centres unmarked) [Example 5]
inhibition at 10 µM (Tables 2-4): 95%

The next lines start with the values.

IC50 (Table 5, head prints no unit): 31 nM
SMILES: CCCCC(NC(=O)c1cc(Cl)nc2ccccc12)C(=O)C(=O)NCCNS(=O)(=O)c1ccc(-c2ccccn2)s1 (centres unmarked) [Example 155]

IC50 (Tables 2-4, pH 7.5): 180 nM
SMILES: CS(=O)(=O)NCCNC(=O)C(=O)C(Cc1ccccc1)NC(=O)c1cc(C#Cc2ccccc2)nc2ccccc12 (centres unmarked) [Example 93]

inhibition at 10 µM (Tables 2-4): 97%
SMILES: O=C(NCCNS(=O)(=O)c1ccccc1)C(=O)C(Cc1ccccc1)NC(=O)c1ccnc2ccccc12 (single isomer, unassigned) [Example 131]

IC50 (Table 5, head prints no unit): 61 nM
SMILES: COCC(NC(=O)c1cc(Cl)nc2ccccc12)C(=O)C(=O)NCCNS(=O)(=O)c1ccc(-c2ccccn2)s1 (centres unmarked) [Example 157]

IC50 (Table 5, head prints no unit): 83 nM
SMILES: O=C(NCCNS(=O)(=O)c1ccc(-c2ccccn2)s1)C(=O)C(Cc1ccccc1)NC(=O)c1nc(-c2ccccc2)nc2ccccc12 (centres unmarked) [Example 154]

IC50 (Tables 2-4, pH 7.5): 128 nM
SMILES: O=C(NOCCNS(=O)(=O)c1ccccc1)C(=O)C(Cc1ccccc1)NC(=O)c1cc(C#Cc2ccccc2)nc2ccccc12 (centres unmarked) [Example 105]

inhibition at 10 µM (Tables 2-4): 99%
SMILES: O=C(NCCNS(=O)(=O)c1ccccc1)C(=O)C(Cc1ccccc1)NC(=O)c1cc(-c2cccnc2)nc2ccccc12 (centres unmarked) [Example 136]

IC50 (Tables 2-4, pH 7.5): 43 nM
SMILES: O=C(NCCNS(=O)(=O)c1ccccc1)C(=O)C(Cc1ccccc1)NC(=O)c1cc(C#Cc2ccccc2)nc2ccccc12 (centres unmarked) [Example 95]

IC50 (Tables 2-4, pH 7.5): 56 nM
SMILES: O=C(NCCNS(=O)(=O)c1cccnc1)C(=O)[C@H](Cc1ccccc1)NC(=O)c1cc(C#Cc2ccccc2)nc2ccccc12 [Example 87]

Calpain I IC50 ** (value in parentheses: % inhibition) (Table 5, ** explained as 10,000 nM only in footnotes to Tables 2-4): 95%
SMILES: O=C(NCCNS(=O)(=O)c1ccccc1)C(=O)C(Cc1ccccc1)NC(=O)c1nc(-c2ccccc2)nc2ccccc12 (centres unmarked) [Example 153]

IC50 (Tables 2-4, pH 7.5): 130 nM
SMILES: O=C(NCCNS(=O)(=O)c1cccc2cccnc12)C(=O)C(Cc1ccccc1)NC(=O)c1cc(C#Cc2ccccc2)nc2ccccc12 (centres unmarked) [Example 89]

IC50 (Tables 2-4, pH 7.5): 87 nM
SMILES: O=C(NCCNS(=O)(=O)c1cccnc1)C(=O)C(Cc1ccccc1)NC(=O)c1cc(Cl)nc2ccccc12 (single isomer, unassigned) [Example 141]

IC50 (Tables 2-4, pH 7.5): 14 nM
SMILES: O=C(NCCNS(=O)(=O)c1ccc(-c2ccccn2)s1)C(=O)[C@H](Cc1ccccc1)NC(=O)c1cc(Cl)nc2ccccc12 [Example 144]

IC50 (Tables 2-4, pH 7.5): 81 nM
SMILES: O=C(NCCS(=O)(=O)Nc1ccccc1)C(=O)C(Cc1ccccc1)NC(=O)c1cc(Cl)nc2ccccc12 (centres unmarked) [Example 147]

IC50 (Tables 2-4, pH 7.5): 16 nM
SMILES: O=C(NCCNS(=O)(=O)c1ccccc1)C(=O)C(Cc1ccccc1)NC(=O)c1cc(CCc2ccccc2)nc2ccccc12 (centres unmarked) [Example 137]

IC50 (Table 5, head prints no unit): 43 nM
SMILES: CCCC(NC(=O)c1cc(Cl)nc2ccccc12)C(=O)C(=O)NCCNS(=O)(=O)c1ccc(-c2ccccn2)s1 (centres unmarked) [Example 156]

IC50 (Tables 2-4, pH 7.5): 42 nM
SMILES: O=C(NCCNS(=O)(=O)C=Cc1ccccc1)C(=O)C(Cc1ccccc1)NC(=O)c1cc(C#Cc2ccccc2)nc2ccccc12 (centres unmarked) [Example 91]
